Patent US20250144067A1, “PERSONALIZED STARVATION THERAPY FOR CANCER” (Faeth Therapeutics, Inc., priority 2021, published 2025)
Counter-ions that a name gives are not always drawn.

Columns and labels:
[1] = system: NCI-H292 lung cancer cells; test: FDA drug screening, complete media vs cholesterol-free media without statin (TABLE 1); type: cell-based, human
[2] = system: NCI-H292 lung cancer cells; test: FDA drug screening, complete media vs cholesterol-free media with simvastatin (TABLE 2); type: cell-based, human; details: for Cholesterol-free media + simvastatin (0.04 μM) / Complete Media: NCI-H292 cells
[3] = Complete minus Cholesterol-free, >0 enhanced anti-cancer activity, about 0 neutral, <0 antagonist
[4] = NCI-H292 cells, cholesterol-free media without statin
[5] = FDA library drug in cholesterol-free media with simvastatin 0.04 μM
[6] = FDA library drug in complete media
[7] = complete media vs cholesterol-free media + simvastatin (0.04 μM), >0 enhanced anti-cancer activity, about 0 neutral, <0 antagonist
[8] = complete vs cholesterol-free media, greater than 0 enhanced anti-cancer activity, about 0 neutral, below 0 antagonists
[9] = FDA drug library screen, cholesterol-free media with simvastatin 0.04 μM
[10] = FDA drug library screen, complete media
[11] = Complete minus Cholesterol-free, greater than 0 enhanced anti-cancer activity, about 0 neutral, below 0 antagonist
[12] = NCI-H292 cells, FDA drug library screen, cholesterol-free media without statin
[13] = NCI-H292 cells, FDA drug library screen, complete media
[14] = NCI-H292 cells, cholesterol-free media without statin, FDA drug library screen
[15] = NCI-H292 cells, complete media, FDA drug library screen
[16] = complete media vs cholesterol-free media + simvastatin (0.04 μM), […]
[17] = drug in cholesterol-free media with simvastatin 0.04 μM
[18] = complete vs cholesterol-free media, >0 enhanced anti-cancer activity, about 0 neutral, <0 antagonist
[19] = cholesterol-free media with simvastatin 0.04 μM, cell growth value in FDA drug screen
[20] = complete media, cell growth value in FDA drug screen
[21] = complete media minus cholesterol-free media + simvastatin, >0 enhanced anti-cancer activity, about 0 neutral, <0 antagonist
[22] = Complete minus Cholesterol-free, […]
[23] = complete media, FDA drug library screen (TABLE 2)

Row | Compound | Cholesterol-free [1, 4] | Complete ([1]; NCI-H292 cells, complete media) | Difference [2, 7] | Cholesterol-free media + simvastatin (0.04 μM) [2, 9] | Cholesterol-free [1, 14] | Complete [1, 15] | Cholesterol-free media + simvastatin (0.04 μM) [2, 17] | Complete Media ([2]; drug in complete media) | Difference [1, 18] | also measured
1 | C#C[C@]1(O)CC[C@H]2[C@@H]3CCC4=CC(=O)CC[C@@H]4[C@H]3CC[C@@]21CC [Levonorgestrel] | 1.107 | 0.8992 | −0.33 | – | – | – | – | – | – | Difference [1, 3]: −0.21; Cholesterol-free media + simvastatin (0.04 μM) [2, 5]: 1.877; Complete Media [2, 6]: 1.543
2 | CC(NCCc1ccc(O)cc1)C(O)c1ccc(O)cc1 (stereo not shown) [Ritodrine (hydrochloride)] | 1.435 | 0.972 | −0.10 | 1.064 | – | – | – | – | – | Difference [1, 8]: −0.46; Complete Media [2, 10]: 0.9618
3 | N#Cc1ccc(Oc2ccc3c(c2)COB3O)cc1 [Crisaborole] | – | – | −0.47 | – | – | – | – | – | – | Difference [1, 11]: −0.14; Cholesterol-free [1, 12]: 1.199; Complete [1, 13]: 1.059; Cholesterol-free media + simvastatin (0.04 μM) [2, 5]: 1.417; Complete Media [2, 6]: 0.9479
4 | Sorafenib (Tosylate) | – | – | – | 1.142 | 0.8797 | 0.9619 | – | – | – | Difference ([1]; complete vs cholesterol-free media, […]): 0.08; Difference [2, 16]: −0.09
5 | NC(=O)c1ccn(-c2cnc(NC[C@]3(c4ncccc4F)C[C@H](F)C3)nc2)c1 [Reldesemtiv] | 1.096 | 0.8441 | −0.19 | – | – | – | 1.122 | 0.9357 | – | Difference [1, 3]: −0.25
6 | COCCOC(=O)C1=C(C)NC(C)=C(C(=O)OC/C=C/c2ccccc2)C1c1cccc([N+](=O)[O-])c1 (stereo not shown) [Cilnidipine] | – | – | −0.18 | – | 1.441 | 1.574 | 0.9073 | 0.7251 | 0.13 | –
7 | NNc1nncc2ccccc12 [Hydralazine (hydrochloride)] | 1.529 | 1.081 | – | – | – | – | – | – | – | Difference [1, 8]: −0.45; Cholesterol-free media + simvastatin (0.04 μM) [2, 19]: 1.049; Complete Media [2, 20]: 1.113; Difference [2, 21]: 0.06
8 | Cc1ncc(CSSCc2cnc(C)c(O)c2CO)c(CO)c1O [Pyrithioxin (dihydrochloride)] | – | – | – | 0.9622 | 0.8349 | 1.062 | – | – | 0.23 | Complete Media [2, 10]: 1.11; Difference [2, 21]: 0.15
9 | NCC1(CC(=O)O)CCCCC1 [Gabapentin] | 1.237 | 0.9357 | – | 1.126 | – | – | – | – | – | Difference [1, 22]: −0.30; Complete Media [2, 10]: 1.036; Difference [2, 16]: −0.09
10 | Cc1ncc([N+](=O)[O-])n1CC(O)CCl (stereo not shown) [Ornidazole] | – | – | −0.18 | – | 0.6543 | 1.082 | 1.385 | 1.209 | 0.43 | –
11 | O=C(Nc1nc(-c2cc(Cl)cs2)c(N2CCN(C3CCCCC3)CC2)s1)c1cnc(N2CCC(C(=O)O)CC2)c(Cl)c1 [Avatrombopag (hydrochloride)] | – | – | −0.10 | 1.18 | – | – | – | – | – | Difference [1, 11]: −0.15; Cholesterol-free [1, 12]: 0.9128; Complete [1, 13]: 0.7673; Complete Media [2, 10]: 1.082
12 | CC1=C(C/C=C(\C)CCC[C@H](C)CCC[C@H](C)CCCC(C)C)C(=O)c2ccccc2C1=O [Vitamin K1] | – | – | −0.43 | – | 0.9273 | 1.412 | – | – | 0.48 | Cholesterol-free media + simvastatin (0.04 μM) [2, 5]: 1.062; Complete Media [2, 6]: 0.6359
13 | CO/N=C(\C(=O)N[C@@H]1C(=O)N2C(C(=O)O)=CCS[C@H]12)c1csc(N)n1 [Ceftizoxime] | – | – | −0.18 | – | 1.031 | 1.057 | 1.55 | 1.371 | – | Difference [1, 3]: 0.03
14 | CCN(CC)C(=O)c1cccc(C)c1 [Diethyltoluamide] | – | – | −0.20 | – | – | – | 1.302 | 1.098 | – | Difference [1, 11]: −0.08; Cholesterol-free [1, 12]: 1.096; Complete [1, 13]: 1.015
15 | CN(c1nccc(=O)[nH]1)C1CCN(c2nc3ccccc3n2Cc2ccc(F)cc2)CC1 [Mizolastine] | – | – | −0.15 | 0.9531 | – | – | – | – | – | Difference [1, 11]: −0.17; Cholesterol-free [1, 12]: 1.446; Complete [1, 13]: 1.273; Complete Media [2, 10]: 0.8007
16 | CC(=O)[C@H]1CC[C@H]2[C@@H]3CC=C4C[C@@H](O)CC[C@]4(C)[C@H]3CC[C@]12C [Pregnenolone] | – | – | – | – | – | – | – | – | – | Difference [1, 22]: −0.56; Cholesterol-free ([1]; NCI-H292 cells in cholesterol-free media without statin): 1.529; Complete ([1]; NCI-H292 cells in complete media): 0.9655; Cholesterol-free media + simvastatin (0.04 μM) [2, 5]: 1.424; Complete Media [2, 6]: 0.9118; Difference [2, 16]: −0.51
17 | CC(C)c1c(C(=O)Nc2ccccc2)c(-c2ccccc2)c(-c2ccc(F)cc2)n1CC[C@@H](O)C[C@@H](O)CC(=O)O [Atorvastatin (hemicalcium salt)] | 0.7947 | 0.5817 | – | 0.4555 | – | – | – | – | – | Difference [1, 3]: −0.21; Complete Media [2, 10]: 0.7295; Difference [2, 21]: 0.27
18 | Cc1ccc(Sc2ccccc2N2CCNCC2)c(C)c1 [Vortioxetine] | – | – | −0.38 | – | 0.5855 | 0.993 | – | – | 0.41 | Cholesterol-free media + simvastatin (0.04 μM) [2, 5]: 1.222; Complete Media [2, 6]: 0.843
19 | C[C@@H](Oc1cc(-c2cnn(C3CCNCC3)c2)cnc1N)c1c(Cl)ccc(F)c1Cl [Crizotinib] | – | – | – | – | 0.1411 | 0.3735 | – | – | 0.23 | Cholesterol-free media + simvastatin (0.04 μM) [2, 19]: 0.4044; Complete Media [2, 20]: 0.5269; Difference [2, 21]: 0.12
20 | CCN1CCN(c2cc(-c3ccc(F)cc3)c3c(n2)CCCCCC3)CC1 [Blonanserin] | – | – | – | – | 1.144 | 1.088 | – | – | – | Difference [1, 3]: −0.06; Complete Media [2, 23]: 0.8939; Difference ([2]; complete media minus cholesterol-free media + simvastatin (0.04 μM), >0 enhanced anti-cancer activity, about 0 neutral, <0 antagonist): −0.05
21 | CNC(=O)c1ccccc1Sc1ccc2c(/C=C/c3ccccn3)n[nH]c2c1 [Axitinib] | – | – | −0.21 | – | 0.7104 | 1.034 | 0.9239 | 0.7152 | 0.32 | –
22 | CCCCCCCCCCCC(=O)OCN1C(=O)CCc2ccc(OCCCCN3CCN(c4cccc(Cl)c4Cl)CC3)cc21 [Aripiprazole Lauroxil] | – | – | – | – | 0.9297 | 0.8705 | – | – | – | Difference [1, 22]: −0.06; Cholesterol-free media + simvastatin (0.04 μM) ([2]; cholesterol-free media with simvastatin 0.04 μM, FDA drug library screen (TABLE 2)): 0.9724; Complete Media [2, 23]: 0.9697; Difference ([2]; complete media minus cholesterol-free media + simvastatin (0.04 μM), […]): 0.00
23 | Cc1ccc(NC(=O)C2(c3ccc4c(c3)OC(F)(F)O4)CC2)nc1-c1cccc(C(=O)O)c1 [Lumacaftor] | 1.044 | 0.854 | −0.20 | – | – | – | 1.744 | 1.539 | – | Difference [1, 3]: −0.19
